# Earlier results in PubChem BioAssay AID1259410 (Chemical Carcinogenesis Research Information System (CCRIS), 2018).
# System: rodent tumor promotion studies, tumor incidence
# Assay: CCRIS tumor promotion studies
structure (smiles),measurement,setting,value
Cc1cc(C(C)(C)C)c(O)c(C(C)(C)C)c1,outcome,"Carcinogen: 2-(ACETYLAMINO)FLUORINE, Doses [Carcinogen]: 200 PPM IN DIET FOR 8 WK, Doses [Promoter]: 300, 1000, 3000, 6000 PPM IN DIET FOR 22 WK AFTER INITIATION FOR 8 WK, Doses [Promoter]: 300, 1000, 3000, 6000 PPM IN DIET FOR 22 WK AFTER INITIATION FOR 8 WK, Route [Carcinogen]: ORAL, Route [Promoter]: ORAL, Species: RAT, Strain/Sex: F344/MALE","liver: neoplastic nodule, hepatocellular carcinoma"
same,outcome,"Carcinogen: 2-(ACETYLAMINO)FLUORINE, Doses [Carcinogen]: DIET, Doses [Promoter]: IN DIET, Route [Carcinogen]: ORAL, Route [Promoter]: ORAL, Species: RAT, Strain/Sex: MALE",liver
same,outcome,"Carcinogen: 3,2'-DIMETHYL-4-AMINOBIPHENYL, 13394-86-0, Doses [Carcinogen]: 50 MG/KG IN CORN OIL 1/WK FOR 10 WK, Doses [Promoter]: 0, 1 ADMINISTERED TO 4 WK OLD RATS IN DIET FOR 11 WK BEGINNING 1 WK PRIOR TO CARCINOGEN (STUDY DURATION: 55 WK), Route [Carcinogen]: SUBCUTANEOUS, Route [Promoter]: ORAL, Species: RAT, Strain/Sex: F344/MALE","bladder: carcinoma, papilloma"
same,outcome,"Carcinogen: 3-METHYLCHOLANTHRENE, 56-49-5, Doses [Carcinogen]: 10, 15, 25 UG/G ONCE, Doses [Carcinogen]: 10, 15, 25 UG/G ONCE, Doses [Promoter]: 0, 200 MG/KG 1/WK FOR 6 WK (STUDY DURATION: 20 WK), Route [Carcinogen]: INTRAPERITONEAL, Route [Promoter]: INTRAPERITONEAL, Species: MOUSE, Strain/Sex: BALB/CBYJ/FEMALE",lung: tumor
same,outcome,"Carcinogen: 3-METHYLCHOLANTHRENE, 56-49-5, Doses [Carcinogen]: 10 UG/G ONCE, Doses [Promoter]: 0, 200 MG/KG 1/WK FOR 6 WK (STUDY DURATION: 20 WK), Route [Carcinogen]: INTRAPERITONEAL, Route [Promoter]: INTRAPERITONEAL, Species: MOUSE, Strain/Sex: BALB/COLA/FEMALE",lung: tumor
same,outcome,"Carcinogen: METHYLNITROSOUREA, 684-93-5, Doses [Carcinogen]: 20 MG/KG 2/WK FOR 4 WK, Doses [Promoter]: 0, 1% IN DIET BEGINNING POST CARCINOGEN TREATMENT AND CONTINUING FOR 32 WK (STUDY DURATION: 36 WK), Route [Carcinogen]: INTRAPERITONEAL, Route [Promoter]: ORAL, Species: RAT, Strain/Sex: F344/MALE","urinary bladder: papilloma, carcinoma; thyroid: adenoma"
same,outcome,"Carcinogen: N,N-DIBUTYLNITROSAMINE, 924-16-3, Doses [Carcinogen]: 0.05% IN DRINKING WATER FOR 16 WK, Doses [Promoter]: 0, 0.7% IN DIET FOR 16 WK CONCOMITANT WITH CARCINOGEN TREATMENT (STUDY DURATION: 32 WK), Route [Carcinogen]: ORAL, Route [Promoter]: ORAL, Species: RAT, Strain/Sex: F344/MALE",liver: hepatocellular carcinoma
same,outcome,"Carcinogen: N-BUTYL-N-(4-HYDROXYBUTYL)NITROSAMINE, 3817-11-6, Doses [Carcinogen]: 0.05% IN DRINKING WATER FOR 4 WK, Doses [Promoter]: 0, 1% IN DIET FOR 32 WK (STUDY DURATION: 36 WK), Route [Carcinogen]: ORAL, Route [Promoter]: ORAL, Species: RAT, Strain/Sex: F344/MALE","urinary bladder: papilloma, carcinoma"
same,outcome,"Carcinogen: N-BUTYL-N-(4-HYDROXYBUTYL)NITROSAMINE, Doses [Carcinogen]: 0.05% IN DRINKING WATER FOR 4 WK, Doses [Promoter]: 1% IN DIET FOR 32 WK AFTER INITIATION, Route [Carcinogen]: ORAL, Route [Promoter]: ORAL, Species: RAT, Strain/Sex: F344/MALE",urinary bladder: carcinoma
same,outcome,"Carcinogen: N-METHYL-N-NITROSOUREA, 684-93-5, Doses [Carcinogen]: 20 MG/KG 2/WK FOR 4 WK, Doses [Promoter]: 0, 1% IN DIET FOR 32 WK (STUDY DURATION: 36 WK), Route [Carcinogen]: INTRAPERITONEAL, Route [Promoter]: ORAL, Species: RAT, Strain/Sex: F344/MALE","thyroid gland: adenoma; urinary bladder: papilloma, carcinoma"
same,outcome,"Carcinogen: URETHANE, 51-79-6, Doses [Carcinogen]: 1 MG/G BW ONCE, Doses [Promoter]: 0, 200 MG/G BW 1/WK FOR 6 WK BEGINNING POST CARCINOGEN TREATMENT (STUDY DURATION: 20 WK), Route [Carcinogen]: INJECTION, Route [Promoter]: INJECTION, Species: MOUSE, Strain/Sex: BALB/MALE,FEMALE",lung: tumor
same,outcome,"Carcinogen: URETHANE, 51-79-6, Doses [Carcinogen]: 1 MG/G BW ONCE, Doses [Promoter]: 0, 200 MG/G BW 1/WK FOR 6 WK BEGINNING POST CARCINOGEN TREATMENT (STUDY DURATION: 20 WK), Route [Carcinogen]: INJECTION, Route [Promoter]: INJECTION, Species: MOUSE, Strain/Sex: GRS/MALE,FEMALE",lung: tumor
same,outcome,"Carcinogen: URETHANE, 51-79-6, Doses [Carcinogen]: 1 MG/KG ONCE, Doses [Promoter]: 0, 200 MG/KG 1/WK FOR 6 WK (STUDY DURATION: 20 WK), Route [Carcinogen]: INTRAPERITONEAL, Route [Promoter]: INTRAPERITONEAL, Species: MOUSE, Strain/Sex: BALB/CBYJ/FEMALE",lung: tumor
same,outcome,"Carcinogen: URETHANE, Doses [Carcinogen]: 1000 MG/KG ONCE, Doses [Promoter]: 0.10, 0.25, 0.50% IN DIET FOR 8 WK BEGINNING 24 HR AFTER INITIATION, Doses [Promoter]: 0.10, 0.25, 0.50% IN DIET FOR 8 WK BEGINNING 24 HR AFTER INITIATION, Route [Carcinogen]: INTRAPERITONEAL, Route [Promoter]: ORAL, Species: MOUSE, Strain/Sex: STRAIN-A/MALE",lung: tumor (nos)
same,outcome,"Carcinogen: URETHANE, Doses [Carcinogen]: IP, Route [Carcinogen]: INTRAPERITONEAL, Route [Promoter]: INTRAPERITONEAL, Species: MOUSE, Strain/Sex: MALE",lung
[K+],outcome,"Carcinogen: N-BIS-(2-HYDROXYPROPYL)NITROSAMINE [53609-64-6], Doses [Carcinogen]: 2800 MG/KG BW ONCE (STUDY DURATION: 83 WK), Doses [Promoter]: 1000 PPM IN DRINKING WATER FOR 82 WK BEGINNING 1 WK POST LAST CARCINOGEN DOSE (STUDY DURATION: 83 WK), Route [Carcinogen]: SUBCUTANEOUS, Route [Promoter]: ORAL, Species: RAT, Strain/Sex: F344/MALE",thyroid gland: follicular cell carcinoma
same,outcome,"Carcinogen: N-Ethyl-N-hydroxyethylnitrosamine, 13147-25-6, Doses [Carcinogen]: 500 ppm in drinking water for 2 wk, Doses [Promoter]: 0, 350, 1750 ppm in drinking water beginning post carcinogen treatment and continuing for 24 wk (study duration: 26 wk), Doses [Promoter]: 0, 350, 1750 ppm in drinking water beginning post carcinogen treatment and continuing for 24 wk (study duration: 26 wk), Route [Carcinogen]: Oral, Route [Promoter]: Oral, Species: Rat, Strain/Sex: F344/Male (15/group)",kidney: renal cell tumors (no promoting effect observed)
CNCCC(Oc1ccc(C(F)(F)F)cc1)c1ccccc1 (centres undefined),outcome,"Carcinogen: 7,12-DIMETHYLBENZ[A]ANTHRACENE, 57-97-6, Doses [Carcinogen]: 20 MG IN 2 ML PEANUT OIL ONCE, Doses [Promoter]: 0, 16 MG/M2 5 D/WK FOR 15 WK BEGINNING POST CARCINOGEN DOSE (STUDY DURATION: 15 WK), Route [Carcinogen]: GAVAGE, Route [Promoter]: INTRAPERITONEAL, Species: RAT, Strain/Sex: SPRAGUE-DAWLEY/FEMALE",mammary gland: tumor
same,outcome,"Carcinogen: 7,12-DIMETHYLBENZ[A]ANTHRACENE, 57-97-6, Doses [Carcinogen]: 20 MG IN 2 ML PEANUT OIL ONCE, Doses [Promoter]: 0, 40 MG/M2 5 D/WK FOR 15 WK BEGINNING POST CARCINOGEN DOSE (STUDY DURATION: 15 WK), Route [Carcinogen]: GAVAGE, Route [Promoter]: INTRAPERITONEAL, Species: RAT, Strain/Sex: SPRAGUE-DAWLEY/FEMALE",mammary gland: tumor
S=C=NCCc1ccccc1,outcome,"Carcinogen: DIETHYLNITROSAMINE, 55-18-5, N-BUTYL-N-(4-HYDROXYBUTYL)NITROSAMINE, 3817-11-6, Carcinogen: DIETHYLNITROSAMINE, 55-18-5, N-BUTYL-N-(4-HYDROXYBUTYL)NITROSAMINE, 3817-11-6, Doses [Carcinogen]: 200 MG/KG DEN ONCE THEN 0.05% BBN IN DRINKING WATER FOR 4 WK, Doses [Promoter]: 0, 0.1% IN DIET FOR 32 WKS BEGINNING 3 D POST CARCINOGEN TREATMENT (STUDY DURATION:36 WK), Route [Carcinogen]: INTRAPERITONEAL, ORAL, Route [Promoter]: ORAL, Species: RAT, Strain/Sex: F344/MALE",urinary bladder: carcinoma
O=NN1CCCC1,outcome,"Carcinogen: N-BUTYL-N-4(HYDROXYBUTYL)NITROSAMINE, 3817-11-6, Doses [Carcinogen]: 0.05% IN DRINKING WATER FOR 2 WK, Doses [Promoter]: 0, 0.02% IN DIET STARTING POST CARCINOGEN AND CONTINUING FOR 22 WK, LEFT URETER LIGATED 8 D POST CARCINOGEN (STUDY DURAT, Route [Carcinogen]: ORAL, Route [Promoter]: ORAL, Species: RAT, Strain/Sex: F344/MALE",bladder: papilloma
NC(=O)c1cccnc1,outcome,"Carcinogen: DIETHYLNITROSAMINE, 55-18-5, Doses [Carcinogen]: 25 MG/KG ONCE PRECEDED 24 HR BY 70% PARTIAL HEPATECTOMY, Doses [Promoter]: 0, 6.7, 30 MILLIMOLAR IN DRINKING WATER BEGINNING 2 WK POST CARCINOGEN DOSE (STUDY DURATION: 20 MO), Doses [Promoter]: 0, 6.7, 30 MILLIMOLAR IN DRINKING WATER BEGINNING 2 WK POST CARCINOGEN DOSE (STUDY DURATION: 20 MO), Route [Carcinogen]: INTRAPERITONEAL, Route [Promoter]: ORAL, Species: RAT, Strain/Sex: F344/MALE",kidney: tumor
CC(=O)OCC(COC(C)=O)OC(C)=O,outcome,"Carcinogen: 7,12-Dimethylbenz(a)anthracene, 57-97-6, Doses [Carcinogen]: 100 ug in 100 ul acetone once at 6 wk of age, Doses [Promoter]: 0, 85 mg, daily for 5 d/wk beginning 1 wk after carcinogen administration for 35 wk, study duration 36 wk, Route [Carcinogen]: Dermal, Route [Promoter]: Dermal, Species: Mouse, Strain/Sex: ICR/Female",skin: none
same,outcome,"Carcinogen: 7,12-Dimethylbenz(a)anthracene, 57-97-6, Doses [Carcinogen]: 100 ug in 100 ul acetone once at 6 wk of age, Doses [Promoter]: 0, 85 mg, twice daily for 5 d/wk beginning 1 wk after carcinogen administration for 35 wk, study duration 36 wk, Route [Carcinogen]: Dermal, Route [Promoter]: Dermal, Species: Mouse, Strain/Sex: ICR/Female",skin: none
